# From ChEMBL document CHEMBL1201862, “PubChem BioAssay data set” (2004)
# The source made the active and inactive calls. Cut-off read from the data, not from the text of the source, for most assays here: actives have a measured EC50 and inactives only a lower limit.
# How the values were obtained:
# [1] = THP-1 cell cytotoxicity, dose response, cytotoxicity control for Vif-APOBEC3G degradation inhibitor project, THP-1 cells (AID 1117359); type: functional; details: Human immunodeficiency virus 1, THP-1
# [2] = Artemis endonuclease inhibitor potency, dose response, biochemical, fluorescence intensity (AID 720701); type: functional;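 note: Artemis endonuclease enzyme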
# [3] = molecular target: T1, Mannose-6-phosphate isomerase (Homo sapiens, UniProt P34949); assay: human PMI inhibitors, high substrate, primary screen, biochemical, fluorescence intensity, high mannose 6-phosphate (AID 1220)
# T1 sequence (P34949 whole entry): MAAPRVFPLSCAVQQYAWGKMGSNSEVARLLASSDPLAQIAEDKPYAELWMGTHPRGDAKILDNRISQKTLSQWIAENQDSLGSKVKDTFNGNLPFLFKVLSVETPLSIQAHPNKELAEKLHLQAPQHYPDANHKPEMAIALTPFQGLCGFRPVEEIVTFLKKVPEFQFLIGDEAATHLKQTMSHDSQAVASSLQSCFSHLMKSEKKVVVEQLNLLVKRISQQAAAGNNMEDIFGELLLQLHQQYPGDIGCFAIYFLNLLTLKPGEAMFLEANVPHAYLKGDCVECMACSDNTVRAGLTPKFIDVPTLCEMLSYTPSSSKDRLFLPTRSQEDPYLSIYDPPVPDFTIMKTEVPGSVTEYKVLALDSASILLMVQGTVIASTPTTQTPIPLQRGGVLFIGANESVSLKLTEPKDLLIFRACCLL
# [4] = molecular target: T1, Mannose-6-phosphate isomerase; assay: inhibitors of human PMI, primary screen, biochemical, fluorescence intensity, coupled assay (AID 1209)
# [5] = molecular target: T2, Calpain-2 catalytic subunit (Sus scrofa, UniProt P43367); assay: pig calpain II inhibitor potency, dose response, biochemical, fluorogenic peptide substrate (AID 1420); type: functional
# T2 sequence (P43367 whole entry): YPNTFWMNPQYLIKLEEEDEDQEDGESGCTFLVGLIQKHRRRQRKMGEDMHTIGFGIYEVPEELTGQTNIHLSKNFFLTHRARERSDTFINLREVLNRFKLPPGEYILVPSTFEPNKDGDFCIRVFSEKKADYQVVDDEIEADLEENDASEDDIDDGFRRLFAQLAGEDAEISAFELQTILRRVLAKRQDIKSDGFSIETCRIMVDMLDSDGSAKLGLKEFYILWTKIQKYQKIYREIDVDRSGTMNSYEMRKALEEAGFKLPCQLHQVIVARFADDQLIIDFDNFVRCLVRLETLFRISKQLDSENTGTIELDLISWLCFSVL
# [6] = tested on: Vero; assay: Vero cell cytotoxicity, cytotoxicity control for flavivirus capping enzyme inhibitors (AID 588742); type: functional; details: Chlorocebus sabaeus
# [7] = cells
# [8] = cytotoxicity toward NIH3T3 fibroblasts, dose response, counter-screen, cell-based, ATP luminescence, mouse fibroblasts (AID 2010); type: functional;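 note: cells exposed to compound for about 90 hours before reading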
# [9] = inhibitors of firefly luciferase expression or activity, dose response, H4 neuroglioma cells, luminescence (AID 1990); type: functional, cell-based
# [10] = inhibitors of intracellular T. cruzi replication, confirmation, NIH3T3 host cells, beta-gal luminescence (AID 2044); type: functional, cell-based;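 note: intracellular parasites grown in NIH/3T3 mouse fibroblasts as host cells; luminescent beta-galactosidase reporter signal from transgenic T. cruzi replicating inside host cells; inhibitors lower the luminescence signal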
# [11] = inhibitors of SNCA 5'UTR-driven reporter translation, confirmation, H4 neuroglioma cells, luminescence (AID 1988); type: functional, cell-based
# [12] = Luminescence Cell-Based Dose Response HTS to Identify Inhibitors of 5'UTR Stem-Loop Driven Prion Protein mRNA Translation in H4 Neuroglioblastoma Cells. [Related pubchem assays: 1827 (Project Summary), 1813 (Primary HTS)]; type: functional
# [13] = tested on: INS1; assay: beta cell apoptosis inhibitors, cytokine rescue, dose response, luminescence, retest (AID 449756); type: functional, cell-based; details: Rattus norvegicus;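 note: cell death triggered by IL-1 beta plus TNF-alpha plus IFN-gamma mixture; protective hits raise ATP signal compared with cytokine alone wells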
# [14] = molecular target: Mitogen-activated protein kinase 10 (Homo sapiens, UniProt P53779); assay: Dose response biochemical screening assay for inhibitors of c-Jun N-Terminal Kinase 3 (JNK3). [Related pubchem assays: 746 ]
# Sequence of Mitogen-activated protein kinase 10 (P53779 whole entry): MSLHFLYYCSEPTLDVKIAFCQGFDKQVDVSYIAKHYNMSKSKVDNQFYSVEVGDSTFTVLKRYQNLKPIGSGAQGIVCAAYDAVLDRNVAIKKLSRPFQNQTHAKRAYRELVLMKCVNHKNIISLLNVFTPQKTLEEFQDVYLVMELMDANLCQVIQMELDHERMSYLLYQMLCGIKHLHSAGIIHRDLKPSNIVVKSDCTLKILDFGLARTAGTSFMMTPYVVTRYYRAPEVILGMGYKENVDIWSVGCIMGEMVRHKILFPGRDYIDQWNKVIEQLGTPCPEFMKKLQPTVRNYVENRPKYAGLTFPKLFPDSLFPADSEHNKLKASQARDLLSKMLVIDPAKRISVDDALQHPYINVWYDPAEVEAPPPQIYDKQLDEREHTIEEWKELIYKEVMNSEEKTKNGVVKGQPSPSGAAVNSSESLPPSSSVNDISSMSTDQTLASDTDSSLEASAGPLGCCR
# [15] = tested on: H4; assay: Luminescence Cell-Based Dose Response HTS to Identify Activators of 5'UTR Stem-Loop Driven Prion Protein mRNA Translation in H4 Neuroglioblastoma Cells. [Related pubchem assays: 1829 (Project Summary), 1814 (Primary HTS)]; type: functional; details: Homo sapiens
# [16] = Luminescence Cell-Based Dose Confirmation to Identify Activators of 5'UTR Stem-Loop Driven Alpha-Synuclein mRNA Translation in H4 Neuroglioblastoma Cells. [Related pubchem assays: 1829 (Project Summary), 1814 (Primary HTS)]; type: functional
# [17] = Luminescence Cell-Based Dose Response to Identify Activators of 5'UTR Stem-Loop Driven Prion Protein mRNA Translation in H4-C Neuroglioblastoma Cells. [Related pubchem assays: 1829 (Project Summary), 1814 (Primary HTS)]; type: functional
# [18] = Luminescence Cell-Based Dose Response HTS to Identify Activators of Luciferase Translation or Activity in H4 […] Cells. [Related pubchem assays: 1829 (Project Summary), 1814 (Primary HTS)]; type: functional
# [19] = Luminescence Cell-Based Dose Response to Identify Activators of Luciferase Translation or Activity in H4-C Neuroglioblastoma Cells. [Related pubchem assays: 1829 (Project Summary), 1814 (Primary HTS)]; type: functional
# [20] = Luminescence Cell-Based Dose Confirmation HTS to Identify Activators of 5'UTR Stem-Loop Driven Alpha-Synuclein mRNA Translation in H4 Neuroglioblastoma Cells. [Related pubchem assays: 1829 (Project Summary), 1814 (Primary HTS)]; type: functional
# [21] = molecular target: Large T antigen (Simian virus 40, UniProt P03070); type: functional, Betapolyomavirus macacae;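 note: Confirmatory-stage PubChem screen for compounds that inhibit SV40 T antigen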
# Sequence of Large T antigen (P03070 whole entry): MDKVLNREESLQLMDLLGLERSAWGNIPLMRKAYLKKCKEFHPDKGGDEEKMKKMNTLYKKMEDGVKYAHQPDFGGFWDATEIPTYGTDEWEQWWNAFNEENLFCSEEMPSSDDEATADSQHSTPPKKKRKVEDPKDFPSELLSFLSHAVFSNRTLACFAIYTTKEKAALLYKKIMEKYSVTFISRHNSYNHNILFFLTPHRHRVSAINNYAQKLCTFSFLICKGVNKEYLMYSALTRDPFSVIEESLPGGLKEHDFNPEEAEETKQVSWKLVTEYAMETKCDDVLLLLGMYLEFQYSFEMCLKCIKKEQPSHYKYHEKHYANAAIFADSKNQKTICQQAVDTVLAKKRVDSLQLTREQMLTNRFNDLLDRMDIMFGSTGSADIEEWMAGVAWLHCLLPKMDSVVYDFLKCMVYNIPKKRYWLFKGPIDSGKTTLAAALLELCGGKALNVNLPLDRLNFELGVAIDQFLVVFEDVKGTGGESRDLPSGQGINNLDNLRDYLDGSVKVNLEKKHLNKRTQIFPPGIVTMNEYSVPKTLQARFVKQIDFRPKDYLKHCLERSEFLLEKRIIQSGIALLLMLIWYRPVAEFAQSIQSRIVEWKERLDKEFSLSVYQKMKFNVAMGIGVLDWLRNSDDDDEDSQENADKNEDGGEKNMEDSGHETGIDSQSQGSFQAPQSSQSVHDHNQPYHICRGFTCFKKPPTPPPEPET
# [22] = molecular target: Induced myeloid leukemia cell differentiation protein Mcl-1 (Homo sapiens, UniProt Q07820); type: functional
# Sequence of Induced myeloid leukemia cell differentiation protein Mcl-1 (Q07820 whole entry): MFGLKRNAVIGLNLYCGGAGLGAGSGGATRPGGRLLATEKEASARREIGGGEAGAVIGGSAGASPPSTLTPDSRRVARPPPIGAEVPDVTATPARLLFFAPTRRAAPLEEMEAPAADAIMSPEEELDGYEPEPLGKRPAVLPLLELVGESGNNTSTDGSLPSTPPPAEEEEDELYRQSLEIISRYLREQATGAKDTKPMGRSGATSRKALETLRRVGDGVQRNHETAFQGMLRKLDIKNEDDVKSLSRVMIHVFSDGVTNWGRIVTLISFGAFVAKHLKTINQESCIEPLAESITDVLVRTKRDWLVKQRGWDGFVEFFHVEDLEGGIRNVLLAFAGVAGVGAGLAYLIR
# [23] = tested on: Streptococcus sp. 'group A'; assay: growth inhibition of control SK(-) GAS strain, dose response, counter-screen for streptokinase expression inhibitor project, luminescence, kanamycin, BacTiterGlo, confirmation (AID 1900); type: functional, organism-based
# [24] = tested on: Streptococcus; assay: Group A Streptococcus viability loss, dose response, counter-screen for streptokinase expression inhibitor project, luminescence, BacTiterGlo (AID 1915); type: functional, organism-based;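 note: potency for reduction of bacterial viability or growth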
# [25] = molecular target: T3, Streptokinase A (Streptococcus pyogenes serotype M1, UniProt P10520); assay: S. pyogenes streptokinase expression inhibitors, potency, dose response, plasminogen activation absorbance, OD405 (AID 1914); type: functional, Streptococcus pyogenes M1 GAS;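 note: secreted streptokinase activity via plasminogen activation per viability signal from cell pellet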
# T3 sequence (P10520 whole entry): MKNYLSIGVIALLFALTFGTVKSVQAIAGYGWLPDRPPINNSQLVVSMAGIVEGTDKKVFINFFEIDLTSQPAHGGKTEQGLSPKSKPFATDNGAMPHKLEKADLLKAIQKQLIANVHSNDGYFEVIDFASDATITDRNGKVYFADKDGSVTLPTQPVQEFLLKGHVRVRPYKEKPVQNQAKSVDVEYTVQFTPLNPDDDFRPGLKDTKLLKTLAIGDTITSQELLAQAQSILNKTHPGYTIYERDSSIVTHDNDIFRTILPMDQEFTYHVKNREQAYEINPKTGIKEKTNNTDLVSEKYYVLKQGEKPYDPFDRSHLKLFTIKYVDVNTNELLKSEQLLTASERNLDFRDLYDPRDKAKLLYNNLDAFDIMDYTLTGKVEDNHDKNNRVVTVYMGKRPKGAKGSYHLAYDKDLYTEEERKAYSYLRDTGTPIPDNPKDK
# [26] = molecular target: T4, Oxysterols receptor LXR-beta (Homo sapiens, UniProt P55055); assay: LXR agonists, Gal4 luciferase reporter, dose response, counter-screen for ssDAF-12 agonist project, cell-based, luminescence, HEK293, S. stercoralis campaign (AID 720737); type: functional; details: read-out: IC50 (the source's name)
# T4 sequence (P55055 whole entry): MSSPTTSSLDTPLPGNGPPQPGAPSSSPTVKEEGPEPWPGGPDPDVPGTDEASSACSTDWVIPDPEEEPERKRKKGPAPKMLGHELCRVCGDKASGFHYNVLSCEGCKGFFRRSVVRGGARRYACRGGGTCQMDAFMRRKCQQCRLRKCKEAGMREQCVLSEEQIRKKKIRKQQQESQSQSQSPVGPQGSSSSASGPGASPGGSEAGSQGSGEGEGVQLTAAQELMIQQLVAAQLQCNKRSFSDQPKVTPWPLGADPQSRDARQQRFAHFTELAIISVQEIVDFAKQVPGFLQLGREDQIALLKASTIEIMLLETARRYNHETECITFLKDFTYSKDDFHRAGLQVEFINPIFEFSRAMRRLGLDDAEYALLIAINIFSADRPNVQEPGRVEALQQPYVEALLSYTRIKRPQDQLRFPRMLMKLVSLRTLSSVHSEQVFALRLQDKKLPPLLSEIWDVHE
# [27] = molecular target: T5, Rac GTPase-activating protein 1 (Homo sapiens, UniProt Q9H0H5); assay: MgcRacGAP GTPase-activating activity inhibitors, confirmation, biochemical, ADP Hunter fluorescence, primary and confirmatory (AID 624330); type: functional
# T5 sequence (Q9H0H5 whole entry): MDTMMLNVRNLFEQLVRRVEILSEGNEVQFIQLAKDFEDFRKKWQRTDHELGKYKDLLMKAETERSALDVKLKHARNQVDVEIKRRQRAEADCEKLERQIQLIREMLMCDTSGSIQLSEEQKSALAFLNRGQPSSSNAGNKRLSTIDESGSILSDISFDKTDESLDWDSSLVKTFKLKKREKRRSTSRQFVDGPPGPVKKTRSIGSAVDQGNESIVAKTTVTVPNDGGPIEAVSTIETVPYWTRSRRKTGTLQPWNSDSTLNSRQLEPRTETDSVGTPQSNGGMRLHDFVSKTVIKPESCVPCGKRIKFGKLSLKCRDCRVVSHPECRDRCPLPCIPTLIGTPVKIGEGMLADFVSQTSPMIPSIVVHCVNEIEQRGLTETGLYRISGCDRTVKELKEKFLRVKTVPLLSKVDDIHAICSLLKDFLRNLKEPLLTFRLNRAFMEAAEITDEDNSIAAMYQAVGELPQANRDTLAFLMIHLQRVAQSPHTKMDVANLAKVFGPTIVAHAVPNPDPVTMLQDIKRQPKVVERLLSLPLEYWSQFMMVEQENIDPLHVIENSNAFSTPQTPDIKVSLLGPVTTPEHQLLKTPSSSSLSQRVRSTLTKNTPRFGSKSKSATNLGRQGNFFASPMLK
# [28] = Luminescence Cell-Based Dose Confirmation HTS to Identify Inhibitors of Platelet Dense Granule Release. [Related pubchem assays: 1663 (Primary HTS), 1678 (Summary of Project)]; type: functional
# [29] = molecular target: Luciferin 4-monooxygenase (Photinus pyralis, UniProt P08659); assay: firefly luciferase enzyme inhibitors, dose response, biochemical, luminescence (AID 1891)
# Sequence of Luciferin 4-monooxygenase (P08659 whole entry): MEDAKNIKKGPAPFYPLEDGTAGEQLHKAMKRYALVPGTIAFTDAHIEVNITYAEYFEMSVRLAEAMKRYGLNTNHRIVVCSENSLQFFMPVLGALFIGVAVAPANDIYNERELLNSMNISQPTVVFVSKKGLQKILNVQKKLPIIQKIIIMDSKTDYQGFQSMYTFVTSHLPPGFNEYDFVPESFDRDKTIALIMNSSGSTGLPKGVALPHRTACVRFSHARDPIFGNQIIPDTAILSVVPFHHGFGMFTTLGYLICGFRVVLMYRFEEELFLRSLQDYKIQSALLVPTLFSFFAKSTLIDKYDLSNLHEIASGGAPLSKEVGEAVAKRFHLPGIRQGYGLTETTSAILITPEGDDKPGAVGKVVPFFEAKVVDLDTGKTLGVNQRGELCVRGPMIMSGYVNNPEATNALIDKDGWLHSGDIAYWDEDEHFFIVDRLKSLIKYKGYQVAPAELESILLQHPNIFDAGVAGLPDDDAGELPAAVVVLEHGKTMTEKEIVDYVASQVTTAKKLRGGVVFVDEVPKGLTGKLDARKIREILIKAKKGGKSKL
# [30] = Luminescence-based cell-based high throughput dose response assay to identify activators of the DAF-12 from the parasite S. stercoralis (ssDAF-12).; type: functional
smiles,measurement,setting,value
O=C(CN1C(=O)/C(=C\c2cccs2)SC1=S)Nc1cccc(C(=O)O)c1,CC50,[1],> 40 µM (active)
Cc1cc(C)c(C(N)=O)c(Nc2cccc3ccccc23)n1,IC50,[2],> 20 µM (inactive)
same,IC50,[3],> 50 µM (not active)
same,IC50,[4],> 50 µM (not active)
COc1cc(CNc2ccc(O)cc2)cc(Br)c1OCc1ccccc1,IC50,[5],13 µM (not active)
same,CC50,[6],> 40 µM (active)
same,CC50,[1],> 40 µM (active)
O=[N+]([O-])c1ccccc1-c1cc(-c2ccccc2)cc(-c2ccccc2)[n+]1Cc1ccccc1Cl.[O-][Cl+3]([O-])([O-])[O-],EC50,[7],0.074 µM (active)
same,EC50,[8],> 60 µM (not active)
same,EC50,[9],11.3 µM (active)
same,EC50,[10],< 0.1 µM (active)
same,EC50,[11],> 120 µM (not active)
same,EC50,[12],> 120 µM (not active)
same,AC50,[13],2.14 µM (active)
C1CCC(OCCN2CCN(CCOC3CCCCC3)CC2)CC1,EC50,[7],0.067 µM (active)
same,EC50,[8],> 30 µM (not active)
same,EC50,[10],< 0.1 µM (active)
O=C(Nc1nncs1)c1ccc(N2C(=O)C3C4C=CC(C4)C3C2=O)cc1 (stereo not drawn),IC50,[14],62.9 µM (not active)
C#CCSc1nnc(-c2ccc(OC)cc2)o1,EC50,[15],> 120 µM (not active)
same,EC50,[16],0.138 µM (active)
same,EC50,[17],3.33 µM (active)
same,EC50,[18],< 0.1 µM (inconclusive)
same,EC50,[19],5.49 µM (active)
same,EC50,[20],7.23 µM (active)
O=C(NCCSc1ccccc1)c1ccccc1,EC50,[15],> 120 µM (not active)
same,EC50,[16],0.198 µM (active)
same,EC50,[17],0.281 µM (active)
same,EC50,[18],< 0.1 µM (inconclusive)
same,EC50,[19],0.347 µM (active)
Nc1ccc(-n2c(N)c(C(=O)NCc3ccc4c(c3)OCO4)c3nc4ccccc4nc32)cc1,IC50,[14],> 93.1 µM (not active)
CC(=O)C(C(C)=O)c1c(Cl)c(O)c(O)c2c(C(=O)c3ccccc3)coc12,IC50,[3],> 50 µM (not active)
same,IC50,[4],> 50 µM (not active)
Cn1c(C(=O)N2CCN(Cc3ccc4c(c3)OCO4)CC2)cc2c(=O)n(C)c3ccccc3c21,IC50,[14],72.6 µM (not active)
O=C(OCC1O[C@@H](OC(=O)c2cc(O)c(O)c(O)c2)[C@@H](OC(=O)c2cc(O)c(O)c(O)c2)[C@@H](OC(=O)c2cc(O)c(O)c(O)c2)[C@@H]1OC(=O)c1cc(O)c(O)c(O)c1)c1cc(O)c(O)c(O)c1 (stereo partly drawn),IC50,[21],4.51 µM (active)
same,IC50,[22],4.54 µM (active)
same,CC50,[1],20.6 µM (active)
Cc1ccc(N2C(=O)CC(Sc3nc[nH]n3)C2=O)cc1 (stereo not drawn),IC50,[4],> 50 µM (not active)
O=C(N/N=C/c1ccc([N+](=O)[O-])o1)c1cn(-c2ccccc2)nc1-c1ccc(F)cc1,EC50,[7],0.03 µM (active)
same,EC50,[8],> 60 µM (not active)
same,EC50,[23],0.841 µM (active)
same,EC50,[24],2.99 µM (active)
same,EC50,[10],< 0.1 µM (active)
same,EC50,[25],> 150 µM (not active)
COc1ccc(/C=N/Nc2nc3ccccc3s2)cc1O,EC50,[26],> 67.5 µM (inactive)
same,IC50,[27],102 µM (active)
same,EC50,[28],5.38 µM (active)
same,EC50,[29],0.947 µM (active)
same,IC50,[30],> 67.5 µM (inactive)
